Results on nine compounds are retold here after article PMC9370150, “UHPLC Enantiomer Resolution for the ɑ/β-Adrenoceptor Antagonist R/S-Carvedilol and Its Major Active Metabolites on Chiralpak IB N-5” (Molecules, 2022).

Like-named read-outs stand apart in the source and are kept apart here. A value given as a limit tells only on which side of the number the result lay.

On the set-up of data set [1]: method as in PMID 1980583. Particulars: therapeutic dose; cited from earlier work.
Another data set concerns β-adrenoreceptor. Particulars: cited from earlier work.
Another data set concerns α1-adrenoreceptor. Conditions: cited from earlier work.
Data set [2] in a line: Enantiomer plasma concentrations in cardiovascular patients after oral 25 mg rac-CAR (UHPLC-UV on Chiralpak IB N-5). Particulars: for concentration at 0.5 h / concentration at 1 h / concentration at 2 h / concentration at 4 h / concentration at 9 h / concentration at 12 h: human, plasma, po, 25 mg.
Procedure: The developed method was applied to single plasma samples obtained from different patients after an oral dose administration of 25 mg rac-CAR under non-standardized conditions. Patients’ plasma was collected at different time intervals after drug administration and CAR and its metabolites were extracted according to the method in Section 4.7 after spiking with IS.
Blood samples obtained from patients were also collected in EDTA-containing tubes. Blood was kept cool and then centrifuged at 2000 g for 15 min. Following plasma separation, it was immediately transferred into clean polypropylene tubes. The samples were always kept at 2–8 °C while handling.
After collection, plasma was obtained and the samples stored frozen until analysis.
The mark [3] stands for this setting: single enantiomers, read-out: Kd, β-adrenoreceptor antagonistic property.
The mark [4] stands for this setting: single enantiomers, read-out: Kd, α1-antagonistic activity.
The mark [5] stands for this setting: patient 3, sampling time 2.0 hr, oral 25 mg racemic CAR.
Setting [6] is: patient 4, sampling time 4.0 hr, oral 25 mg racemic CAR.
The mark [7] stands for this setting: patient 5, sampling time 9.0 hr, oral 25 mg racemic CAR.
The mark [8] stands for this setting: patient 6, sampling time 12.0 hr, oral 25 mg racemic CAR.

As for `COc1ccccc1OCCNCC(O)COc1cccc2[nH]c3ccccc3c12` (centres unmarked) [CAR, Carvedilol], in data set [1], the “excreted unchanged into urine” value is recorded as 2% and the “fraction of dose metabolized” value is recorded as about 98%. Also, the β-adrenoceptor-antagonism eudismic ratio result with β-adrenoreceptor (parent CAR) is listed as “approximately 100”. Moreover, the Kd on β-adrenoreceptor (racemate, read-out: Kd, nonselective β-adrenoreceptor antagonist) is 11 nM. For the same compound, the α1-adrenoceptor-antagonism eudismic ratio entry in the data set on α1-adrenoreceptor (parent CAR) is “approximately 1”. At α1-adrenoreceptor (racemate, read-out: apparent dissociation constant (Kd), α1-adrenoreceptor antagonist), the Kd is 0.9 nM. The “plasma S/R ratios of CAR enantiomers” value in data set [2] (analyzed patient samples after 25 mg CAR racemate) is recorded as about 1. In data set [2], this compound displayed a concentration at 0.5 h of 41 ng/mL and a concentration at 1 h of 98.4 ng/mL. For the same compound, the “Plasma concentration S/R” value in data set [2] (patient 1, sampling time 0.5 hr, oral 25 mg racemic CAR) came out at 0.98. For the same compound, the “sum of the two enantiomers in plasma” value in data set [2] (patients investigated, 25 mg CAR racemate) was at most 100 ng/mL.

As to `COc1ccccc1OCCNC[C@H](O)COc1cccc2[nH]c3ccccc3c12` [S-CAR, (-)-1-(9H-carbazol-4-yloxy)-3-[2-(2-methoxyphenoxy)ethylamino] propan-2-ol], the “β-adrenoreceptor potency relative to the racemic mixture” value with β-adrenoreceptor (fold more potent than racemate) is on record as “approximately two-fold”. Also, the Kd at β-adrenoreceptor (setting [3]) is 0.4 nM. Besides, the Kd at α1-adrenoreceptor (setting [4]) was 14 nM. Further, in data set [2], the concentration at 0.5 h was 20.3 ng/mL and the concentration at 1 h amounted to 50 ng/mL.

Regarding `COc1ccccc1OCCNC[C@@H](O)COc1cccc2[nH]c3ccccc3c12` [R-CAR], in the data set with β-adrenoreceptor (share of the racemate's activity), the “β-blocking activity relative to the racemate” value was “approximately 1%”. Further, the Kd at β-adrenoreceptor (setting [3]) is about 45 nM. Besides, the Kd on α1-adrenoreceptor (setting [4]) is 16 nM. In data set [2], the concentration at 0.5 h turned out to be 20.7 ng/mL and the concentration at 1 h came to 48.4 ng/mL.

In data set [2], `Oc1ccccc1OCCNC[C@H](O)COc1cccc2[nH]c3ccccc3c12` [S-DMC] came in with a concentration at 1 h of 3.27 ng/mL, a concentration at 2 h of 9.92 ng/mL, a concentration at 4 h of 8.52 ng/mL and a concentration at 9 h of 5.02 ng/mL. Further, the concentration at 12 h in data set [2] worked out at 2.73 ng/mL.

As to `COc1ccc(O)cc1OCCNC[C@H](O)COc1cccc2[nH]c3ccccc3c12` [S-5′OHC], in data set [2], the concentration at 2 h was determined as 11.5 ng/mL, the concentration at 4 h stood at 14.1 ng/mL, the concentration at 9 h came to 8.09 ng/mL and the concentration at 12 h turned out to be 5.28 ng/mL.

`COc1cc(O)ccc1OCCNC[C@H](O)COc1cccc2[nH]c3ccccc3c12` [S-4′OHC]: in data set [2], the concentration at 2 h worked out at 13.7 ng/mL, the concentration at 4 h turned out to be 16.1 ng/mL, the concentration at 9 h was found to be 8.18 ng/mL and the concentration at 12 h amounted to 5.29 ng/mL.

`COc1ccc(O)cc1OCCNC[C@@H](O)COc1cccc2[nH]c3ccccc3c12` [R-5′OHC]: the “Plasma Concentration” value is 8.20 ng/mL in data set [2] (setting [5]), 9.47 ng/mL in data set [2] (setting [6]), 6.09 ng/mL in data set [2] (setting [7]) and 3.78 ng/mL in data set [2] (setting [8]).

In the case of `COc1cc(O)ccc1OCCNC[C@@H](O)COc1cccc2[nH]c3ccccc3c12` [R-4′OHC], the “Plasma Concentration” value came to 4.51 ng/mL in data set [2] (setting [5]), 4.98 ng/mL in data set [2] (setting [6]), 3.54 ng/mL in data set [2] (setting [7]) and 1.96 ng/mL in data set [2] (setting [8]).

Turning to `Oc1ccccc1OCCNC[C@@H](O)COc1cccc2[nH]c3ccccc3c12` [R-DMC], the “Plasma Concentration” value in data set [2] (patient 2, sampling time 1.0 hr, oral 25 mg racemic CAR) was 2.40 ng/mL; in data set [2] (setting [5]), 6.06 ng/mL; in data set [2] (setting [6]) it was 4.93 ng/mL; in data set [2] (setting [7]), 2.82 ng/mL; in data set [2] (setting [8]), 1.52 ng/mL.
